Assay results taken from ChEMBL document CHEMBL1201862, “PubChem BioAssay data set” (2004).
Active and inactive are the calls of the source.

Tests used:
[1] = biological target: T1, Delta-type opioid receptor (Homo sapiens, UniProt P41143); assay: HTS Image-Based Screen for Antagonists of the DOR Receptor. [Related pubchem assays (depositor defined):AID1777, AID1785, AID1786, AID2133]; type: functional
Mu-type opioid receptor [2] = biological target: T2, Mu-type opioid receptor (Homo sapiens, UniProt P35372); assay: HTS Image-Based Screen for Agonists of the MOR Receptor. [Related pubchem assays (depositor defined):AID1777, AID1785, AID1786, AID2133]; type: functional
[3] = biological target: T1, Delta-type opioid receptor; assay: HTS Image-Based Screen for Agonists of the DOR Receptor. [Related pubchem assays (depositor defined):AID1777, AID1786, AID2133]; type: functional
[4] = biological target: T3, Kappa-type opioid receptor (Homo sapiens, UniProt P41145); type: functional
Beta-galactosidase = Beta-galactosidase (Escherichia coli, UniProt Q8VNN2); type: functional
[5] = biological target: T3, Kappa-type opioid receptor; type: functional; remark: listed apart in the source
[6] = biological target: T4, G-protein coupled receptor 35 (Homo sapiens, UniProt Q9HC97); assay: GPR35 antagonists blocking zaprinast-driven arrestin recruitment, primary screen, imaging, U2OS, beta-arrestin-GFP, zaprinast agonist (AID 2058); type: functional;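 also: antagonist potency meaning inhibition of agonist-induced arrestin redistribution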
[7] = biological target: T5, G-protein coupled receptor 55 (Homo sapiens, UniProt Q9Y2T6); assay: GPR55 antagonists blocking LPI-driven arrestin recruitment, primary screen, imaging, U2OS, beta-arrestin-GFP, LPI agonist (AID 2013); type: functional;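 also: antagonist potency measured as reduced agonist-driven arrestin aggregation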
[8] = growth suppression of PTEN-null colon cells, dose response, cell-based, HCT116 PTEN knockout (AID 1047); type: functional;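 also: HCT116 colon tumor cells with PTEN knocked out; cells exposed to compound for 60 hours before readout; potency for loss of cell viability measured by luminescence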
[9] = growth suppression of beta-catenin-knockout colon cells, dose response, cell-based, HCT116, human colon tumor (AID 1045); type: functional;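 also: HCT116 colon tumor cells with beta catenin knocked out; cells exposed to compound for 60 hours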
CAAX prenyl protease 2 [10] = biological target: T6, CAAX prenyl protease 2 (Saccharomyces cerevisiae S288c, UniProt Q03530); type: biochemical
T6 sequence (Q03530 whole entry): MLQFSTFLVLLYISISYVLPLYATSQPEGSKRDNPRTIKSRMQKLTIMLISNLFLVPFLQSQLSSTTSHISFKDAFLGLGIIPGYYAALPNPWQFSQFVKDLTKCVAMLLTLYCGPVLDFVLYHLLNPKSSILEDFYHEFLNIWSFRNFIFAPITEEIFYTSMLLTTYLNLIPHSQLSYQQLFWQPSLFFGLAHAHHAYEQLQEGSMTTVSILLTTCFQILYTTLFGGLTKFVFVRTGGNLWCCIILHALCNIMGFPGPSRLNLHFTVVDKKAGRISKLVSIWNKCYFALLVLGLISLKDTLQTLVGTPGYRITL

Integrin alpha-4 = Integrin alpha-4 (Homo sapiens, UniProt P13612); assay: VLA-4 integrin allosteric ligands, SAR follow-up, cell-based, LIBS antibody binding, flow cytometry (AID 488791); type: functional
[11] = mammalian cell cytotoxicity, dose response, cytotoxicity control, plate reader, cherry-pick samples (AID 504397); type: functional, cell-based
[12] = biological target: T7, Replicative DNA helicase DnaB (Mycobacterium tuberculosis, UniProt P9WMR3); assay: DnaB intein splicing inhibitors, dose response, biochemical, cell-free fluorescence (AID 449749); type: functional
T7 sequence (P9WMR3 whole entry): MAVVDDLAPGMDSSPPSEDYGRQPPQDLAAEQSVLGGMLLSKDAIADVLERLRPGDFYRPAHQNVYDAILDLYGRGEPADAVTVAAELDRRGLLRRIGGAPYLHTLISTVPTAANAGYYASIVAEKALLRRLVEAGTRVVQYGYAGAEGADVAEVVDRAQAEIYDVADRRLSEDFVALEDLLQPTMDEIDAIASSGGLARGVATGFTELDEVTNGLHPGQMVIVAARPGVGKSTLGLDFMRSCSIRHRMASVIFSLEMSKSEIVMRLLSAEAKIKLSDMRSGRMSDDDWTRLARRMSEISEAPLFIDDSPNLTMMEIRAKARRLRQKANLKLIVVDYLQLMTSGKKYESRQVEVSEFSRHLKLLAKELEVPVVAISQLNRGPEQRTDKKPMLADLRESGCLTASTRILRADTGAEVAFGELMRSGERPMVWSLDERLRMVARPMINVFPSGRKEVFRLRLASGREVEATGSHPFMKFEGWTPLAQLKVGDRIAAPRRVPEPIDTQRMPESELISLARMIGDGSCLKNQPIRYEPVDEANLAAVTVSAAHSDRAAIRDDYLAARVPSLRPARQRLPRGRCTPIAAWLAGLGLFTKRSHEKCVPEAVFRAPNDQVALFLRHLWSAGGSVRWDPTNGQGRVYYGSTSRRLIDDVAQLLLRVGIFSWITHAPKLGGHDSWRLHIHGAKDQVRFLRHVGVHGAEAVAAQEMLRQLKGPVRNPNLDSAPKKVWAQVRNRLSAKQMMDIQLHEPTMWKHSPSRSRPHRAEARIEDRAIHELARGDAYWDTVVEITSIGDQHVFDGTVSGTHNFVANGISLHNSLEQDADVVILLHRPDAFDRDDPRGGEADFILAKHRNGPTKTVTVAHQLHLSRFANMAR

Protein RecA = biological target: T8, Protein RecA (Mycobacterium tuberculosis, UniProt P9WHJ3); assay: Fluorescence Cell-Free Homogeneous Dose Retest to Identify Inhibitors of RecA-Intein Splicing Activity. [Related pubchem assays (depositor defined):AID2097, AID2223, AID489010, AID492950]; type: functional
T8 sequence (P9WHJ3 whole entry): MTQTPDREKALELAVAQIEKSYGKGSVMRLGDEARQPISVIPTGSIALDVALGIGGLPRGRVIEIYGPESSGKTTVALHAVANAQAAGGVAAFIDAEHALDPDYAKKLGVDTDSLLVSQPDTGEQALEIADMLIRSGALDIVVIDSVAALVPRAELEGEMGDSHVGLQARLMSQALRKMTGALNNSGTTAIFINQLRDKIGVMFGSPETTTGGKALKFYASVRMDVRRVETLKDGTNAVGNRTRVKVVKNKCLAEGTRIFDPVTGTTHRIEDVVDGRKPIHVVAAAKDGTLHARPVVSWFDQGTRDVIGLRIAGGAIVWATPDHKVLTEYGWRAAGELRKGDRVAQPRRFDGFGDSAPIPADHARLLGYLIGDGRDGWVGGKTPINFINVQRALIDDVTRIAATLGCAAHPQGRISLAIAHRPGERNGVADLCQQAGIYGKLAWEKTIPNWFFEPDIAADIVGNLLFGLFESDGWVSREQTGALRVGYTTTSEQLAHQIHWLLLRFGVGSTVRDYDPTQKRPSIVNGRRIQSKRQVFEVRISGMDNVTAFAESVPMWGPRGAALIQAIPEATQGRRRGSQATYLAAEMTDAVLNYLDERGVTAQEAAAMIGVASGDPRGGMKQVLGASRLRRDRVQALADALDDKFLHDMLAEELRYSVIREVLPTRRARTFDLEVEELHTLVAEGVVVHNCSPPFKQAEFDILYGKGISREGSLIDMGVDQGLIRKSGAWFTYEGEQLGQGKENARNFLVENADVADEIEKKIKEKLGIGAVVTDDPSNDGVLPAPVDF

CAAX prenyl protease 2 [13] = biological target: T9, CAAX prenyl protease 2 (Homo sapiens, UniProt Q9Y256); assay: human Rce1 protease inhibitors, dose response, biochemical, yeast membranes, quenched-peptide fluorescence, cherry-pick (AID 588849)
T9 sequence (Q9Y256 whole entry): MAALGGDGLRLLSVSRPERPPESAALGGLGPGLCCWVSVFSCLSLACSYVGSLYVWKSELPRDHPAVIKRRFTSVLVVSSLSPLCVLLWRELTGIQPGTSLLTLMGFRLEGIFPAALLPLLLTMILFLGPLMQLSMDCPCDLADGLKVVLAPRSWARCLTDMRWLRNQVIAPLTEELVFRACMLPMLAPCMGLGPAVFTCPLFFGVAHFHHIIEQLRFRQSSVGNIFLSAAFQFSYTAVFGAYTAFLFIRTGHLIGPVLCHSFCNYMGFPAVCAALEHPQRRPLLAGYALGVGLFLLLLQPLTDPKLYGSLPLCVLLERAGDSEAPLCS

[14] = inhibitors of intracellular T. cruzi replication, confirmation, NIH3T3 host cells, beta-gal luminescence (AID 2044); type: functional, cell-based;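 also: intracellular parasites grown in NIH/3T3 mouse fibroblasts as host cells; luminescent beta-galactosidase reporter signal from transgenic T. cruzi replicating inside host cells; inhibitors lower the luminescence signal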
[15] = cytotoxicity toward NIH3T3 fibroblasts, dose response, counter-screen, cell-based, ATP luminescence, mouse fibroblasts (AID 2010); type: functional;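 also: cells exposed to compound for about 90 hours before reading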
Cannabinoid receptor 1 [16] = biological target: T10, Cannabinoid receptor 1 (Homo sapiens, UniProt P21554); assay: SAR analysis of antagonists of the Cannabinoid Receptor 1 using an Image-Based Assay - Set 2. [Related pubchem assays (depositor defined):AID2013, AID2026]; type: functional
[17] = biological target: T4, G-protein coupled receptor 35; assay: SAR analysis of Agonists of the GPR35 Receptor using an Image-Based Assay - Set 2. [Related pubchem assays (depositor defined):AID2013, AID2026]; type: functional
Cannabinoid receptor 2 [18] = biological target: T11, Cannabinoid receptor 2 (Homo sapiens, UniProt P34972); assay: SAR analysis of antagonists of the Cannabinoid Receptor 2 using an Image-Based Assay. [Related pubchem assays (depositor defined):AID2013, AID2026]; type: functional
Cannabinoid receptor 1 [19] = biological target: T10, Cannabinoid receptor 1; assay: SAR analysis of agonists of the Cannabinoid Receptor 1 using an Image-Based Assay - Set 2. [Related pubchem assays (depositor defined):AID2013, AID2026]; type: functional
[20] = biological target: T4, G-protein coupled receptor 35; assay: SAR analysis of Antagonists of the GPR35 Receptor using an Image-Based Assay - Set 3. [Related pubchem assays (depositor defined):AID2013, AID2026]; type: functional
[21] = biological target: T5, G-protein coupled receptor 55; assay: GPR55 antagonist potency of analogs, SAR follow-up, imaging, U2OS, beta-arrestin-GFP, LPI agonist, set 2 (AID 2820); type: functional
Cannabinoid receptor 2 [22] = biological target: T11, Cannabinoid receptor 2; assay: SAR analysis of agonists of the Cannabinoid Receptor 2 using an Image-Based Assay. [Related pubchem assays (depositor defined):AID2013, AID2026]; type: functional
[23] = biological target: Voltage-dependent T-type calcium channel subunit alpha-1H (Homo sapiens, UniProt O95180); assay: Cav3.2 T-type channel blockers, cell-based, SynthLib3 library, HEK293 Cav3.2, fluorescence (AID 493041); type: functional
[24] = biological target: T3, Kappa-type opioid receptor; assay: KOR agonist analogs, arrestin-GFP redistribution, SAR follow-up, imaging, image-based, set 3 (AID 488833); type: functional
Mu-type opioid receptor [25] = biological target: T2, Mu-type opioid receptor; assay: SAR Analysis of Agonists of the MOR Receptor using an Image-Based Assay - Set 3. [Related pubchem assays (depositor defined):AID1777, AID1785, AID1786, AID1966, AID2133, AID2136, AID2284, AID2285, AID2352]; type: functional
[26] = biological target: T1, Delta-type opioid receptor; assay: SAR Analysis of Agonists of the DOR Receptor using an Image-Based Assay - Set 3. [Related pubchem assays (depositor defined):AID1777, AID1786]; type: functional
[27] = biological target: T3, Kappa-type opioid receptor; assay: SAR analysis of small molecule agonists of the kappa opioid receptor via a luminescent beta-arrestin assay - Set 3. [Related pubchem assays (depositor defined):AID1777, AID1785, AID1786, AID1966, AID2133, AID2136, AID2284, AID2500]; type: functional
Tumor necrosis factor = Tumor necrosis factor (Homo sapiens, UniProt P01375); assay: TNFa-triggered NF-kB activation inhibitors, SAR follow-up, cell-based, revised (AID 2337); type: functional
[28] = biological target: Nucleotide-binding oligomerization domain-containing protein 1 (Homo sapiens, UniProt Q9Y239); assay: NOD1 signaling inhibitors, SAR follow-up, revised (AID 2333); type: functional
HEK293 = assay: cells; conditions: Homo sapiens;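 also: cells exposed to compound for 14 hours overnight before viability readout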

T4 sequence (Q9HC97 whole entry): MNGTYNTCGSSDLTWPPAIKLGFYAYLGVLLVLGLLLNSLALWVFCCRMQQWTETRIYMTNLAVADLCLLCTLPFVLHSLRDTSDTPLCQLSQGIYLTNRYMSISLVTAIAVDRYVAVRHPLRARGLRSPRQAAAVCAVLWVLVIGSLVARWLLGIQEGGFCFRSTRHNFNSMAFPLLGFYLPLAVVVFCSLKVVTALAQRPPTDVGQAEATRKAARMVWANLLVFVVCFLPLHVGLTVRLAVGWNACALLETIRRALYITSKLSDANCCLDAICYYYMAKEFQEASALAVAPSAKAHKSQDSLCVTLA
T5 sequence (Q9Y2T6 whole entry): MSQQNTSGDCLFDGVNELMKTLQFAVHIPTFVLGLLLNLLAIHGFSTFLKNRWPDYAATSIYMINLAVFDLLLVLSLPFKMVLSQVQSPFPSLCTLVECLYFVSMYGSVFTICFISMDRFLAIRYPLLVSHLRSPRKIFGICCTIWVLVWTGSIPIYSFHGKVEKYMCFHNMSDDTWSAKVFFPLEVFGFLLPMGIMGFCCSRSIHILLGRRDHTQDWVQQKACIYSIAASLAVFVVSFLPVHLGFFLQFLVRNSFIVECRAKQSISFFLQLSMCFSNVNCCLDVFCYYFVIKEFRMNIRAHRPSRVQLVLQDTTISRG
T1 sequence (P41143 whole entry): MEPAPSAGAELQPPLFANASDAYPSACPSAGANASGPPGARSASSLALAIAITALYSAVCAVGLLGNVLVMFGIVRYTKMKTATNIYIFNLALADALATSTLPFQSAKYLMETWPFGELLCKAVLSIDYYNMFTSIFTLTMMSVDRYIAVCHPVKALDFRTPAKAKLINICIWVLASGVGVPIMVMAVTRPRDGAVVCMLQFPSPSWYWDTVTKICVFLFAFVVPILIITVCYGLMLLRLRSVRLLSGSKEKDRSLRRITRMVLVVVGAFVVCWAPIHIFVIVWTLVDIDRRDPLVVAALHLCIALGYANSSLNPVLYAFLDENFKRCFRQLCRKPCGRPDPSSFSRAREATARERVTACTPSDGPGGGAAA
T3 sequence (P41145 whole entry): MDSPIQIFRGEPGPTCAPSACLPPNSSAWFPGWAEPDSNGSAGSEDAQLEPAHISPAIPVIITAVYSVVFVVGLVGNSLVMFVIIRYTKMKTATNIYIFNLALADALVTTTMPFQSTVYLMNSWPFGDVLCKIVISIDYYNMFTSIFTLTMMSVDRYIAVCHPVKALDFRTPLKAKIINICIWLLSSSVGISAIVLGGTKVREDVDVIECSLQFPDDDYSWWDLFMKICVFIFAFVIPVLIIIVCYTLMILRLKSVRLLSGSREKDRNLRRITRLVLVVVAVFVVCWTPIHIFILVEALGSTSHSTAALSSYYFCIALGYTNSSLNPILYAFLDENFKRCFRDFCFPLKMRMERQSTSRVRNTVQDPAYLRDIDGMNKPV
T10 sequence (P21554 whole entry): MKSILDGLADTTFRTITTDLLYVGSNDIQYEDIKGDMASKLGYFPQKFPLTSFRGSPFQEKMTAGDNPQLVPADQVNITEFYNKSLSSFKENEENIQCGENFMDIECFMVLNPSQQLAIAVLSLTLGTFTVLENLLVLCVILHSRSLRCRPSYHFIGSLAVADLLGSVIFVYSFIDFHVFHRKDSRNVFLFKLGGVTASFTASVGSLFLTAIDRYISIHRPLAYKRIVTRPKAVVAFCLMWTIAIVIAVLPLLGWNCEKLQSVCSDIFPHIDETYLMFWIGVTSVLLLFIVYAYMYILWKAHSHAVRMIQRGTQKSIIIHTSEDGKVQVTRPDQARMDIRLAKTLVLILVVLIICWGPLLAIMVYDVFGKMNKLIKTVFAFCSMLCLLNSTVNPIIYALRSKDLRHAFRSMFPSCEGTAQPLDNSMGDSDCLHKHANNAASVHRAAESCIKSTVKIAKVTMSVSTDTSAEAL
T2 sequence (P35372 whole entry): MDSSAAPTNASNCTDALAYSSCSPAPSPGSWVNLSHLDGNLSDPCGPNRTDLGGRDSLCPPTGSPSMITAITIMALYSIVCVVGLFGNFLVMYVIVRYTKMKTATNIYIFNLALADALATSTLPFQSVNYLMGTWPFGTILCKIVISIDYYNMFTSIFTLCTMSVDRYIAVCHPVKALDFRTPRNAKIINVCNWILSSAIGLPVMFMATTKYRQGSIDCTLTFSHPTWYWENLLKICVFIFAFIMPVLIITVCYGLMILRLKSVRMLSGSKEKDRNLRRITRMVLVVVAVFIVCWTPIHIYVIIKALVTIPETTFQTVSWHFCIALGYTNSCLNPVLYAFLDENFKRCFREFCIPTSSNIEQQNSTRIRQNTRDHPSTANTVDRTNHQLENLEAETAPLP
T11 sequence (P34972 whole entry): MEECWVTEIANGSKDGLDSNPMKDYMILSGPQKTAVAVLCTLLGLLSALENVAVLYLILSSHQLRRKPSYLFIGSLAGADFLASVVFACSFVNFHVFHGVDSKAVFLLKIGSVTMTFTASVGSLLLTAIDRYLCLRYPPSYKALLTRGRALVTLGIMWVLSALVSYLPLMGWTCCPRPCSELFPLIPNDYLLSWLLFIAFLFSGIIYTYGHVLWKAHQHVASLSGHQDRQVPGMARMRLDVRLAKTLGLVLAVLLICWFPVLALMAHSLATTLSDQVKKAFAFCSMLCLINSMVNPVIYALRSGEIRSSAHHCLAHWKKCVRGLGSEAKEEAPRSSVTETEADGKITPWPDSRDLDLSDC
Sequence of Voltage-dependent T-type calcium channel subunit alpha-1H (O95180 whole entry): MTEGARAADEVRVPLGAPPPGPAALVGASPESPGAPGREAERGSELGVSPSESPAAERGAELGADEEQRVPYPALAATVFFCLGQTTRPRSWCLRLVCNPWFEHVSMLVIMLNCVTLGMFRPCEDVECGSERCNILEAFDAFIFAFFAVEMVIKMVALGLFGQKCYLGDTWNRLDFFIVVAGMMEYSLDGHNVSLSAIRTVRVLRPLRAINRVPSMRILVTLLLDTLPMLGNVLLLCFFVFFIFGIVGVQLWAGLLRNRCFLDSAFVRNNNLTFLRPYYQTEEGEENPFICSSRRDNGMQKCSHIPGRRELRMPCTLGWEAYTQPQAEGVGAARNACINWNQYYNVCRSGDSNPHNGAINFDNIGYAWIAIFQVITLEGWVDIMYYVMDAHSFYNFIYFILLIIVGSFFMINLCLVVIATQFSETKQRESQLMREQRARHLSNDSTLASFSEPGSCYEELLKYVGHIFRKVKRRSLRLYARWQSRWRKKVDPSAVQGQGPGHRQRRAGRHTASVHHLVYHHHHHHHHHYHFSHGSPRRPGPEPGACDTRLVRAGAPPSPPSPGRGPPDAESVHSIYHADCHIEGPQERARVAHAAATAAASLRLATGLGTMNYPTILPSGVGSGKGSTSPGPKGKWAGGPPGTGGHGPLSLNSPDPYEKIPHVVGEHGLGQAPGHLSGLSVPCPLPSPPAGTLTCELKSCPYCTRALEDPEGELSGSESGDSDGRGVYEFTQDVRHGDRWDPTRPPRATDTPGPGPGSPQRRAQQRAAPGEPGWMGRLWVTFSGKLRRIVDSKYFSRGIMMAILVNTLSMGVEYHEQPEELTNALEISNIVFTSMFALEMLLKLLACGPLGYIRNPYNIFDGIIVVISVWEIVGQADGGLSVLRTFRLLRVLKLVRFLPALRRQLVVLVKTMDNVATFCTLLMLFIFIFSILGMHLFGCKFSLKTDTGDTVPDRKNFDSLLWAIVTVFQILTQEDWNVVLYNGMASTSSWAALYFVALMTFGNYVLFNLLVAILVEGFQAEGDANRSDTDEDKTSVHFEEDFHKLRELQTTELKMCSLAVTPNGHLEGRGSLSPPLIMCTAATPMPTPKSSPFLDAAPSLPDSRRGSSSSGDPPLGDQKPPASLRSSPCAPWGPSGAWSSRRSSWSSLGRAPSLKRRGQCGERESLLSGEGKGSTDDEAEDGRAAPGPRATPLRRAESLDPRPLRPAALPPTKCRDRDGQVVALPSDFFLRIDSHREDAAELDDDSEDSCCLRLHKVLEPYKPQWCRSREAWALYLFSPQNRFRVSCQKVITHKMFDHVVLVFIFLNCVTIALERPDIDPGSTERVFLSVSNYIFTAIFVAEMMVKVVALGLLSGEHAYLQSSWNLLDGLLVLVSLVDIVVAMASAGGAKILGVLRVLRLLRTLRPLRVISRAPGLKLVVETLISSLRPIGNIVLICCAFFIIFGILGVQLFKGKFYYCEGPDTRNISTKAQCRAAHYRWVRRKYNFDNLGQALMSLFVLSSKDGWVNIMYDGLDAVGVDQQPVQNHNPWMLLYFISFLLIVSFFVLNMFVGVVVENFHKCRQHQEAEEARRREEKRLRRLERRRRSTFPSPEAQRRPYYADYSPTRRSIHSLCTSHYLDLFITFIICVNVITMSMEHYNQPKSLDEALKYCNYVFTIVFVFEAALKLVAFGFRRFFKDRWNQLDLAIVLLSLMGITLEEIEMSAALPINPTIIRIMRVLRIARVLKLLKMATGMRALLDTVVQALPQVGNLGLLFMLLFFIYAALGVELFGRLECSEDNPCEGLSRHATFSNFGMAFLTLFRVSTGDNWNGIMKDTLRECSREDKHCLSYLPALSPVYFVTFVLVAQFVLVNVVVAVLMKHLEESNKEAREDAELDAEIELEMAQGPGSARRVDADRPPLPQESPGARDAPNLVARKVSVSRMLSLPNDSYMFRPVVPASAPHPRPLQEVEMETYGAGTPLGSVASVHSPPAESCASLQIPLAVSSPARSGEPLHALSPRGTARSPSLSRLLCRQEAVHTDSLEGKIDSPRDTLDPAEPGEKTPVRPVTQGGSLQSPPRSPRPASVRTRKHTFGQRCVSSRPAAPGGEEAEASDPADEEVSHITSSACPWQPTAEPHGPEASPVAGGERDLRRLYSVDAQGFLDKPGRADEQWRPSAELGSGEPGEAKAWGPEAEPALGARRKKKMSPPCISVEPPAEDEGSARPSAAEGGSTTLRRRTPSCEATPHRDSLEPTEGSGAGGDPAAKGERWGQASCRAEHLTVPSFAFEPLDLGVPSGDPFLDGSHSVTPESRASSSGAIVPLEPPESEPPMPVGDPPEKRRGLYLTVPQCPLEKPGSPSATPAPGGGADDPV

COC(=O)c1ccc(C)c(-n2c(=O)n(Cc3ccccc3)c(=O)c3[nH]cnc32)c1
IC50 [1]: > 32 µM (inactive)
EC50 (Mu-type opioid receptor [2]): > 32 µM (inactive)
EC50 [3]: > 32 µM (inactive)
IC50 [4]: 6.39 µM (active)
EC50 (Beta-galactosidase): 11.5 µM (active)
IC50 [5]: > 32 µM

CC(NC(=O)/C(C#N)=C/c1ccc(Cl)c([N+](=O)[O-])c1)c1ccccc1 (stereo unspecified)
IC50 [6]: 2.53 µM (active)
IC50 [7]: 8.95 µM (active)
EC50 [8]: 17.8 µM (active)
EC50 [9]: 13.5 µM (active)
AC50 (CAAX prenyl protease 2 [10]): 2.44 µM (active)
EC50 (Integrin alpha-4): 2.42 µM (active)
AC50 [11]: 18.2 µM (active)
AC50 [12]: 4.02 µM (active)
EC50 (Protein RecA): 5.2 µM (active)
AC50 (CAAX prenyl protease 2 [13]): 8.59 µM (active)

CCC(C)NS(=O)(=O)c1ccc(NC(=O)C(Sc2ccccc2)c2ccccc2)cc1 (stereo unspecified)
IC50 [7]: 0.592 µM (active)
EC50 [14]: 2.34 µM (active)
EC50 [8]: 13.6 µM (active)
EC50 [15]: > 60 µM (not active)
EC50 [9]: 14.5 µM (active)
IC50 (Cannabinoid receptor 1 [16]): 0.975 µM (active)
EC50 [17]: > 32 µM (inactive)
IC50 (Cannabinoid receptor 2 [18]): > 32 µM (inactive)
EC50 (Cannabinoid receptor 1 [19]): > 32 µM (inactive)
IC50 [20]: > 32 µM (inactive)
IC50 [21]: 1.94 µM (active)
EC50 (Cannabinoid receptor 2 [22]): > 32 µM (inactive)

CCC(CC)CN1CCC[C@H](NC(=O)COc2ccc(F)c(Cl)c2)C1
EC50 [23]: 10 µM (active)

COC(=O)c1ccc(CSc2nnc(-c3ccccn3)n2Cc2ccco2)cc1
EC50 [24]: 18.7 µM (inactive)
EC50 (Mu-type opioid receptor [25]): > 32 µM (inactive)
EC50 [26]: > 64 µM (inactive)
EC50 [27]: 6.62 µM (active)

CC(=O)N1c2ccc(S(=O)(=O)N3CCN(c4ccc(C)cc4)CC3)cc2CC1C (stereo unspecified)
IC50 (Tumor necrosis factor): 4.32 µM (active)
IC50 [28]: 5.76 µM (active)
IC50 (HEK293): > 20 µM (inactive)
